Experimental findings from ChEMBL document CHEMBL5291721, “A preclinical secondary pharmacology resource illuminates target-adverse drug reaction associations of marketed drugs” (Nat Commun, 2023) are described below.

Experiment [1] addresses T1, Amine oxidase [flavin-containing] A (Homo sapiens, UniProt P21397).
T1 sequence (P21397 whole entry): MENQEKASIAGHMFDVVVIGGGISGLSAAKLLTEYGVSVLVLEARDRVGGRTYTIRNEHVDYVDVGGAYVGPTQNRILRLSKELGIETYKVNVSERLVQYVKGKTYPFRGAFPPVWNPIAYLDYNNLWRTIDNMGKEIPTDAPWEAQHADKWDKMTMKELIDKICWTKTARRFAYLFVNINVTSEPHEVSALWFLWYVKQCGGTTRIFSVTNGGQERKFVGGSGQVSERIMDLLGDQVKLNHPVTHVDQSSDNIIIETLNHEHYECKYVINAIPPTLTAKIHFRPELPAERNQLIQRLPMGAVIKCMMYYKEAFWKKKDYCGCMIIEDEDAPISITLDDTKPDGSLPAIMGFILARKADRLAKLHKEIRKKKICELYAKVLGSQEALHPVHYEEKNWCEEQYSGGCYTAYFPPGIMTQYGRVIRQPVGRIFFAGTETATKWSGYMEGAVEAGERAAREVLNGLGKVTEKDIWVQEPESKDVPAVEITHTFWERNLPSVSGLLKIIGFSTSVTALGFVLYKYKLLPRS
It counts as functional.

The next experiment has as its target Cannabinoid receptor 1 (Homo sapiens, UniProt P21554). It counts as functional, cell-based.
The target in the next experiment is T2, Endothelin-1 receptor (Homo sapiens, UniProt P25101).
T2 sequence (P25101 whole entry): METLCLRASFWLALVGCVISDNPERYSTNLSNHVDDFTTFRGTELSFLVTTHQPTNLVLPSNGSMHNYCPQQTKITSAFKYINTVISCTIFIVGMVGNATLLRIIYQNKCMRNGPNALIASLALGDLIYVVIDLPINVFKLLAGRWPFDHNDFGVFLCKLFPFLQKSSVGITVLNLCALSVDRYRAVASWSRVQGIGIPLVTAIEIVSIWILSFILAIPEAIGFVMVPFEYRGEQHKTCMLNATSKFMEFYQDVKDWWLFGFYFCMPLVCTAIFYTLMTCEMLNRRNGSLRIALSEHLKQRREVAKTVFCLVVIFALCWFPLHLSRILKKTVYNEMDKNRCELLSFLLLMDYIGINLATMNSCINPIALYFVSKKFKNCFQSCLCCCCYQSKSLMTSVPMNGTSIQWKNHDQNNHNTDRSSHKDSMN

In another experiment the target is D(1A) dopamine receptor (Homo sapiens, UniProt P21728). It counts as functional, cell-based.
Another experiment has as its target D(3) dopamine receptor (Homo sapiens, UniProt P35462).
Experiment [2] concerns the target T3, Gastrin/cholecystokinin type B receptor (Homo sapiens, UniProt P32239).
T3 sequence (P32239 whole entry): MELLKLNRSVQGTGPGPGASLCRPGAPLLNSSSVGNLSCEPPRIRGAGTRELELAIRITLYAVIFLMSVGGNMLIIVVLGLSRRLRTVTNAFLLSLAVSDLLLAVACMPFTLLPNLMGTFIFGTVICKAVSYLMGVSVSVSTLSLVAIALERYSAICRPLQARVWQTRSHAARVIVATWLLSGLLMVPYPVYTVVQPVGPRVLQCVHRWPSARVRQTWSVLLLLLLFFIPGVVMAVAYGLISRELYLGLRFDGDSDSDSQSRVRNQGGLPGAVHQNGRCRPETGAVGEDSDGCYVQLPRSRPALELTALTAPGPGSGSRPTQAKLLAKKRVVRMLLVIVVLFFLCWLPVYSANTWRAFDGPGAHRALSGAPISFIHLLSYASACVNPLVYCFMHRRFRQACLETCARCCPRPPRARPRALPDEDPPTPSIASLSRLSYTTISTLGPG

Experiment [3] deals with Gamma-aminobutyric acid receptor subunit alpha-1 (Rattus norvegicus, UniProt P62813).
Another experiment addresses T4, Thromboxane A2 receptor (Homo sapiens, UniProt P21731).
T4 sequence (P21731 whole entry): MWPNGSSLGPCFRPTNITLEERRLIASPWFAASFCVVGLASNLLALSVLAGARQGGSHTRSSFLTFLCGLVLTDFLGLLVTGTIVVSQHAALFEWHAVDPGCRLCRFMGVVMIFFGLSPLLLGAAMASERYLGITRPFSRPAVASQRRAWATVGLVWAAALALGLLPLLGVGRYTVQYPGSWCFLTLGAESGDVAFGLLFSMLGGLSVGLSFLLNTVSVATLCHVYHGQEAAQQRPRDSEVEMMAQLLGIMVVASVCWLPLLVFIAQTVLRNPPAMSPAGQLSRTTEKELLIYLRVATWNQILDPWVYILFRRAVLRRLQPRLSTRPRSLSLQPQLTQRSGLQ

Bounds are passed on as bounds.

By AC50 is commonly meant the midpoint of the concentration-response curve, whichever way the signal moves. A low value points to greater potency.
Also: assay procedure not described here.

Sequence of D(1A) dopamine receptor (P21728 whole entry): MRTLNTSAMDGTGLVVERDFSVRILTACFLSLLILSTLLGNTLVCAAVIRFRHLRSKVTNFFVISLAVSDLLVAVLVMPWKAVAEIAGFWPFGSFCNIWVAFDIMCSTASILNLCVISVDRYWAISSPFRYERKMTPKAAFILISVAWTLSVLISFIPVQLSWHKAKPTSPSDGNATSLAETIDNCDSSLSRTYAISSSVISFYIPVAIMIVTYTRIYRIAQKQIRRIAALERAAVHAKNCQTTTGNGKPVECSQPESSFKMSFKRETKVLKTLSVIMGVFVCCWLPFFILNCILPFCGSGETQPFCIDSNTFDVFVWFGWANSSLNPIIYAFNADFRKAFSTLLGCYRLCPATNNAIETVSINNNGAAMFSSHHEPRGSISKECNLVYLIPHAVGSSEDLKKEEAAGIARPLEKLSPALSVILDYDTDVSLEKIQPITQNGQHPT
Sequence of Cannabinoid receptor 1 (P21554 whole entry): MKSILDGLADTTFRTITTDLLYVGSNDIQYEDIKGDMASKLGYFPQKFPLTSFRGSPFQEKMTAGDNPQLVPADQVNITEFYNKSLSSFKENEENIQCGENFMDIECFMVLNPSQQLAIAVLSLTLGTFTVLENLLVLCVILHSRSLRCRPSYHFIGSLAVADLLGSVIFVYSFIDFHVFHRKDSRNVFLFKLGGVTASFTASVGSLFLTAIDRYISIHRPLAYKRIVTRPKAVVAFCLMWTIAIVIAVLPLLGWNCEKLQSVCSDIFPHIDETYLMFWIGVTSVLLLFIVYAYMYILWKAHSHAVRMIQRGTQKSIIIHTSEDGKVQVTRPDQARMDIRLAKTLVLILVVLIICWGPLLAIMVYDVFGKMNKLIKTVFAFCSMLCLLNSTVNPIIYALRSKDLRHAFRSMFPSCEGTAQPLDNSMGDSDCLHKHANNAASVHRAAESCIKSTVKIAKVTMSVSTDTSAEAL
Sequence of Gamma-aminobutyric acid receptor subunit alpha-1 (P62813 whole entry): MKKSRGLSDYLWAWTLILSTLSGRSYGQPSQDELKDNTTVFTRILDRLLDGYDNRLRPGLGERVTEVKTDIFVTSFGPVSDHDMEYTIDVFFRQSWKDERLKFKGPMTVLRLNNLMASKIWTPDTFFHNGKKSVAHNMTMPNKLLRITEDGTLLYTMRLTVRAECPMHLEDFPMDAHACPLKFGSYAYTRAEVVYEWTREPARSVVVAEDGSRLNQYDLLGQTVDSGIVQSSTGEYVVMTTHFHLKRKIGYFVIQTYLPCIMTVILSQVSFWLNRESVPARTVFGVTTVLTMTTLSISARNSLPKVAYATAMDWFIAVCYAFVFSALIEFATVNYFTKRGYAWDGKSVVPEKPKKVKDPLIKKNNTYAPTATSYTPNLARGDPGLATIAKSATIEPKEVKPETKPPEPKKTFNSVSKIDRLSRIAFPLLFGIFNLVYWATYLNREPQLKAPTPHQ
Sequence of D(3) dopamine receptor (P35462 whole entry): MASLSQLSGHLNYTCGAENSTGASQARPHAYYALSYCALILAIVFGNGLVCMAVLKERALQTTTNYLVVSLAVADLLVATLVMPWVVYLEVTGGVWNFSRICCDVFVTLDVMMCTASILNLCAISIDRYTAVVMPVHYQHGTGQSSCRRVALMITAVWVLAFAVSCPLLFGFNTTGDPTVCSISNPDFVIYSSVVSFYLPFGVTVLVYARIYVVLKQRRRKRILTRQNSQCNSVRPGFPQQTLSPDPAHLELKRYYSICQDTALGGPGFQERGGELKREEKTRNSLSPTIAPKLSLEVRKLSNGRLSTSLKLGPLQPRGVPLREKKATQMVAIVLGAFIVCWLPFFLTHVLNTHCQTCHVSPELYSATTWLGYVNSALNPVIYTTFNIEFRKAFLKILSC

With `Cc1nnc(SCC2=C(C(=O)O)N3C(=O)[C@@H](NC(=O)Cn4cnnn4)[C@H]3SC2)s1` [CEFAZOLIN], the AC50 in experiment [1] was > 300 µM; at Cannabinoid receptor 1, > 300 µM; at Endothelin-1 receptor it was > 300 µM; at D(1A) dopamine receptor, > 300 µM; at D(3) dopamine receptor, > 300 µM; in experiment [2] it was > 30 µM.
Take `CC[C@H](C)C(=O)O[C@H]1C[C@@H](C)C=C2C=C[C@H](C)[C@H](CC[C@@H]3C[C@@H](O)CC(=O)O3)[C@H]21` [LOVASTATIN]: the concentration at half-maximal activity (AC50) in experiment [1] was > 10 µM; at Cannabinoid receptor 1, > 30 µM; in experiment [3] it was > 10 µM; at Thromboxane A2 receptor it was 12 µM; on Endothelin-1 receptor, > 30 µM; at D(1A) dopamine receptor, > 10 µM. Moreover, the AC50 at D(3) dopamine receptor is > 10 µM; in experiment [2], > 30 µM.
Consider `CC(C)[C@H](N)C(=O)OCCOCn1cnc2c(=O)[nH]c(N)nc21` [VALACYCLOVIR], for which the AC50 in experiment [1] was > 10 µM; on Cannabinoid receptor 1 it was > 30 µM; in experiment [3], > 10 µM; at Thromboxane A2 receptor, > 30 µM; on Endothelin-1 receptor, > 30 µM; at D(1A) dopamine receptor it was > 10 µM. Moreover, the AC50 is > 10 µM at D(3) dopamine receptor and > 30 µM in experiment [2].
Turning to `CC=CC1=C(C(=O)O)N2C(=O)[C@@H](NC(=O)[C@H](N)c3ccc(O)cc3)[C@H]2SC1` [CEFPROZIL], the AC50 in experiment [1] was > 30 µM; in experiment [3], > 30 µM; on Thromboxane A2 receptor, > 30 µM; at D(1A) dopamine receptor it was > 30 µM; on D(3) dopamine receptor, 26 µM; in experiment [2], > 30 µM.
For `Cc1nc(Nc2ncc(C(=O)Nc3c(C)cccc3Cl)s2)cc(N2CCN(CCO)CC2)n1` [DASATINIB], the AC50 in experiment [1] is > 30 µM; on Cannabinoid receptor 1 it was > 30 µM; on Thromboxane A2 receptor, > 10 µM; at Endothelin-1 receptor, > 30 µM; at D(1A) dopamine receptor, > 30 µM; at D(3) dopamine receptor it was > 30 µM. Moreover, the AC50 in experiment [2] is > 30 µM.
For `CC1(C)S[C@@H]2[C@H](NC(=O)C(C(=O)O)c3ccccc3)C(=O)N2[C@H]1C(=O)O` (stereo partly drawn) [CARBENICILLIN], the AC50 (in experiment [1]; on Cannabinoid receptor 1; at Endothelin-1 receptor; at D(1A) dopamine receptor; at D(3) dopamine receptor; in experiment [2]) was > 30 µM in each case.
For the molecule `Clc1ccc(Cn2c(CN3CCCC3)nc3ccccc32)cc1` [CLEMIZOLE], the AC50 (in experiment [1]; at Cannabinoid receptor 1; at Endothelin-1 receptor; on D(1A) dopamine receptor; on D(3) dopamine receptor) was > 30 µM throughout.
For the molecule `CC(C)Cc1ccc([C@H](C)C(=O)O)cc1` [DEXIBUPROFEN], the AC50 (in experiment [1]; on Cannabinoid receptor 1; at Endothelin-1 receptor; on D(1A) dopamine receptor; at D(3) dopamine receptor) was > 30 µM throughout.
Consider `CCCNC(=O)NS(=O)(=O)c1ccc(Cl)cc1` [CHLORPROPAMIDE], for which the AC50 is > 10 µM in experiment [1]; > 30 µM on Cannabinoid receptor 1; > 10 µM in experiment [3]; > 30 µM at Thromboxane A2 receptor; > 30 µM at Endothelin-1 receptor; > 10 µM on D(1A) dopamine receptor. The AC50 (on D(3) dopamine receptor; in experiment [2]) was > 30 µM each time.
Take `CN(CCOc1ccc(CC2SC(=O)NC2=O)cc1)c1ccccn1` (stereo not drawn) [ROSIGLITAZONE]: the AC50 in experiment [1] is 8 µM; on Cannabinoid receptor 1 it was > 30 µM; in experiment [3], > 30 µM; on Thromboxane A2 receptor, > 30 µM; on Endothelin-1 receptor it was > 30 µM; at D(1A) dopamine receptor, > 30 µM. The AC50 (at D(3) dopamine receptor; in experiment [2]) was > 30 µM each time.
Consider `CNC[C@H](O)c1ccc(O)c(O)c1` [EPINEPHRINE], for which the AC50 is > 30 µM in experiment [1], > 30 µM on Cannabinoid receptor 1, > 30 µM at Endothelin-1 receptor and 8.4 µM at D(3) dopamine receptor.
For the molecule `CCCCCCCN(CC)CCCC(O)c1ccc(NS(C)(=O)=O)cc1` (stereo not drawn) [IBUTILIDE], the AC50 was > 30 µM in experiment [1]; > 30 µM in experiment [3]; > 30 µM at Thromboxane A2 receptor; > 30 µM on Endothelin-1 receptor; > 30 µM at D(1A) dopamine receptor; 4.3 µM at D(3) dopamine receptor. Moreover, the AC50 in experiment [2] was > 30 µM.
For the molecule `S=P(N1CC1)(N1CC1)N1CC1` [THIOTEPA], the AC50 was > 30 µM in experiment [1]; > 30 µM on Cannabinoid receptor 1; > 30 µM on Endothelin-1 receptor; > 30 µM at D(1A) dopamine receptor; 9.9 µM at D(3) dopamine receptor.
For the molecule `CNC(=C[N+](=O)[O-])NCCSCc1csc(CN(C)C)n1` [NIZATIDINE], the AC50 was > 10 µM in experiment [1]; > 10 µM in experiment [3]; > 10 µM at Thromboxane A2 receptor; > 10 µM at D(1A) dopamine receptor; > 30 µM on D(3) dopamine receptor.
As to `CC[C@@H](CO)NC(=O)[C@@H]1C=C2c3cccc4c3c(cn4C)C[C@H]2N(C)C1` [METHYSERGIDE], the AC50 in experiment [1] is > 10 µM; at Cannabinoid receptor 1, > 30 µM; in experiment [3], > 10 µM; at Thromboxane A2 receptor, 24.5 µM; at Endothelin-1 receptor, > 30 µM; at D(3) dopamine receptor, 0.42 µM. In addition, in experiment [2], the AC50 was > 30 µM.
As to `CC(C)(O/N=C(\C(=O)N[C@@H]1C(=O)N2C(C(=O)[O-])=C(C[n+]3ccccc3)CS[C@H]12)c1csc(N)n1)C(=O)O` [CEFTAZIDIME], the AC50 in experiment [1] was > 300 µM; at Cannabinoid receptor 1 it was > 300 µM; on Endothelin-1 receptor, > 300 µM; at D(1A) dopamine receptor it was > 300 µM; on D(3) dopamine receptor it was > 300 µM; in experiment [2], > 30 µM.
Consider `CCC(=O)O[C@]1(C(=O)CCl)[C@@H](C)C[C@H]2[C@@H]3CCC4=CC(=O)C=C[C@]4(C)[C@@]3(F)[C@@H](O)C[C@@]21C` [CLOBETASOL PROPIONATE], for which the AC50 (in experiment [1]; at Cannabinoid receptor 1; in experiment [3]; on Endothelin-1 receptor; at D(1A) dopamine receptor; on D(3) dopamine receptor) was > 30 µM throughout. Moreover, the AC50 in experiment [2] was > 30 µM.
Turning to `COc1cc(C(=O)NS(=O)(=O)c2ccccc2C)ccc1Cc1cn(C)c2ccc(NC(=O)OC3CCCC3)cc12` [ZAFIRLUKAST], the AC50 in experiment [1] was > 10 µM; at Cannabinoid receptor 1 it was 30 µM; in experiment [3] it was > 10 µM; on Thromboxane A2 receptor it was > 10 µM; on D(1A) dopamine receptor it was > 10 µM.
In the case of `CCOc1cc([C@@H](CS(C)(=O)=O)N2C(=O)c3cccc(NC(C)=O)c3C2=O)ccc1OC`, the AC50 (in experiment [1]; on Cannabinoid receptor 1; on Endothelin-1 receptor; at D(1A) dopamine receptor; on D(3) dopamine receptor) was > 30 µM throughout.
As to `Cc1onc(-c2c(F)cccc2Cl)c1C(=O)N[C@@H]1C(=O)N2[C@@H]1SC(C)(C)[C@@H]2C(=O)O` [FLOXACILLIN], the AC50 (in experiment [1]; at Cannabinoid receptor 1; at Endothelin-1 receptor; on D(1A) dopamine receptor; on D(3) dopamine receptor) was > 30 µM throughout.
Consider `CCCc1cc(=O)[nH]c(=S)[nH]1` [PROPYLTHIOURACIL], for which the AC50 in experiment [1] was > 10 µM; in experiment [3] it was > 10 µM; on Thromboxane A2 receptor, > 10 µM; at D(1A) dopamine receptor, > 10 µM; on D(3) dopamine receptor, > 30 µM.
